The values that follow are results of earlier work, collected in PMC6272846, “Synthesis and p38 Inhibitory Activity of Some Novel Substituted N,N′-Diarylurea Derivatives” (Molecules, 2016).

One data set relates to TNF-α production. Also noted: method as in PMID 11896401. The note with it: 30 mg/kg p.o.; cited from earlier work.
The subject of data set [1] is TNF-α production, human whole blood. Also noted: method as in PMID 11896401. The note with it: read-out: IC50, inhibition of LPS-induced TNF-α production; cited from earlier work.

In the case of `Cc1ccc(-n2nc(C(C)(C)C)cc2NC(=O)Nc2ccc(OCCN3CCOCC3)c3ccccc23)cc1` [BIRB-796, 1-(5-tert-butyl-2-p-tolyl-2h-pyrazol-3-yl)-3-[4-(2-morpholin-4-yl-ethoxy)naph-thalen-1-yl]urea], the “inhibition of LPS-induced TNF-α production in mice in vivo” value in the data set with TNF-α production was 84%. Further, the IC50 (in general, the midpoint of a concentration-inhibition curve) in data set [1] was 0.78 µM.
